{
  "source": "patent US4619943A",
  "about": "“Neolignans of Saururus cernuus L and analogues thereof” (priority 1984, dated 1986)",
  "type_in_all_cases": "in vivo",
  "key": {"[1]": {"experiment": "Antiamphetamine activity (method of Weissman et al., mice instead of rats)", "conditions": "mice", "procedure": "Neuroleptic drugs are said to bind to postsynaptic dopamine receptors in the brain, thereby blocking dopaminergic transmission. […] Based on this, an assay for possible neuroleptic activity was developed and is commonly used. […] 151, 339 (1966)), except that mice were used instead of rats. A comparison under the same conditions was also made of the antiamphetamine activity of a standard neuroleptic drug, haloperidol, which gave an ED50 value of 0.5 mg/Kg (Table 2)."}, "[2]": {"system": "Pimephales promelas", "experiment": "Acute toxicity to fish", "conditions": "for % Mortality, Avg / % Mortality, single replicates (1 to 6): 2 hours", "procedure": "Many compounds having insecticidal activity also show toxicity to fish. For example, rotenoids, pyrethrins, and DDT have significant toxicity to fish. For this reason, fish have been used frequently to indicate potential insecticidal activity. The present compounds were tested for acute toxicity to fish by the method described in \"Methods For Acute Toxicity Tests With Fish, Macro-Invertebrates and Amphibians\", EPA 660/3-75-009, Committee on Methods for Toxicity Tests With Aquatic Organisms, Environmental Protection Agency, Corvallis, OR, 1975.\nThe fish, commonly known as Missouri minnows or fat heads (Pimephales promelas, family, cyprinidae) were purchased from a local hatchery and equilibrated to the new surroundings for 24 hours. They were kept in deionized water, previously adjusted to pH 6.5 with phosphate buffer at 23° C. Sufficient oxygen was provided, and the fish were deprived of food during the test period.\nGroups of six fish were placed in containers with different concentrations of the test compound. The percent mortality was recorded every 30 minutes. The LC 50 values (mg/L) and 95% confidence limits were determined from the percent mortality data after 2 hours of exposure from 6 separate replicates using the method of Lichfield and Wiloxon [(J. Pharmacology and Exp. Therepeutics, 96, 99-113 (1949))]."}, "[3]": {"system": "southern armyworm (Spodoptera eridania)", "experiment": "Insecticidal activity against southern armyworm", "conditions": "both application rates, 1000 and 500 ppm, 14 days", "procedure": "(§1) The present compounds were tested for insecticidal activity against cabbage looper (Trichoplusia ni [Hubner]), and southern armyworm (Spodoptera eridania) at application rates of 1000 and 500 ppm. The tests were conducted in petri dishes containing a solid food source in which the test compounds had been incorporated. The petri dishes containing the treated food source were infested with second instar larvae of southern armyworms or cabbage loopers. Ten larvae per replicate and two replicates per test rate were used. Mortality data were taken 14 days after infestation."}, "[4]": {"system": "mice", "experiment": "Neuroleptic / CNS-depressant activity in experimental animals (general statements)"}, "[5]": {"system": "mosquito larvae (Aedes aegypti)", "experiment": "Mosquito larvae test", "conditions": "24 hours", "procedure": "Similarly, in a test using mosquito larvae (Aedes aegypti) as the insect test species, SC-7 gave 15% mortality and SC-8 gave 93% mortality at an application rate of 100 ppm. In this test, one ml of a solution of 1000 ppm of the test compound in 10% acetone - 90% water was added to 9 ml of water in a culture tube. Ten mosquito larvae were added, and mortality readings were taken 24 hours later."}, "[6]": {"system": "cabbage looper (Trichoplusia ni [Hubner])", "experiment": "Insecticidal activity against cabbage looper", "conditions": "both application rates, 1000 and 500 ppm, 14 days", "procedure": "as §1"}},
  "note": "Where “and” joins values, the source holds several entries; their conditions need not be identical. Equal entries are not always repeated.",
  "data": [
    {"smiles": "O=C(CCCN1CCC(O)(c2ccc(Cl)cc2)CC1)c1ccc(F)cc1", "note": "[Haloperidol, haloperidol, reference compound]", "values": [
      {"measurement": "ED50", "setting": "[1]; Mus musculus, inhibition of amphetamine-induced agitation, stereotypy, body-hydration", "value": 0.5, "unit": "mg/kg"},
      {"measurement": "% Inhibition (antiamphetamine activity)", "setting": "[1]; dose 0.05 mg/Kg", "value": 10, "unit": "%"},
      {"measurement": "% Inhibition (antiamphetamine activity)", "setting": "[1]; dose 0.1 mg/Kg", "value": 20, "unit": "%"},
      {"measurement": "% Inhibition (antiamphetamine activity)", "setting": "[1]; dose 0.5 mg/Kg", "value": 40, "unit": "%"},
      {"measurement": "% Inhibition (antiamphetamine activity)", "setting": "[1]; dose 0.75 mg/Kg", "value": 50, "unit": "%"},
      {"measurement": "% Inhibition (antiamphetamine activity)", "setting": "[1]; dose 1.0 mg/Kg", "value": 60, "unit": "%"},
      {"measurement": "% Inhibition (antiamphetamine activity)", "setting": "[1]; dose 1.3 mg/Kg", "value": 70, "unit": "%"},
      {"measurement": "% Inhibition (antiamphetamine activity)", "setting": "[1]; dose 1.8 mg/Kg", "value": 90, "unit": "%"}
    ]},
    {"smiles": "COc1ccc(C(O)C(C)Oc2ccc([C@@H]3O[C@@H](c4ccc(OC(C)C(O)c5ccc6c(c5)OCO6)c(OC)c4)[C@@H](C)[C@@H]3C)cc2OC)cc1OC", "note": "(stereo partly drawn) [SC-7, 2α-[3-methoxy-4-{threo-3-hydroxy-3-(3,4-dimethoxyphenyl)}isopropoxyphenyl]-5β-[3-methoxy-4-{threo-3-hydroxy-3-(3,4-methylenedioxyphenyl)}isopropoxyphenyl]-3α,4β-dimethyltetrahydrofuran]", "values": [
      {"measurement": "% Mortality, Avg", "setting": "[2]; 0.03 mg/L", "value": 6, "unit": "%"},
      {"measurement": "% Mortality, single replicates (1 to 6)", "setting": "[2]; 0.03 mg/L, 120 min", "value": "0% (4×) and 17% (2×)"},
      {"measurement": "% Mortality, Avg", "setting": "[2]; 0.06 mg/L", "value": 38, "unit": "%"},
      {"measurement": "% Mortality, single replicates (1 to 6)", "setting": "[2]; 0.06 mg/L, 120 min", "value": "33% (4×) and 17% (2×)"},
      {"measurement": "% Mortality, Avg", "setting": "[2]; 0.09 mg/L", "value": 41, "unit": "%"},
      {"measurement": "% Mortality, single replicates (1 to 6)", "setting": "[2]; 0.09 mg/L, 120 min", "value": "50% and 33% (5×)"},
      {"measurement": "% Mortality, Avg", "setting": "[2]; 0.13 mg/L", "value": 58, "unit": "%"},
      {"measurement": "% Mortality, single replicates (1 to 6)", "setting": "[2]; 0.13 mg/L, 120 min", "value": "83% and 67% and 50% (4×)"},
      {"measurement": "% Mortality, Avg", "setting": "[2]; 0.25 mg/L", "value": 86, "unit": "%"},
      {"measurement": "% Mortality, single replicates (1 to 6)", "setting": "[2]; 0.25 mg/L, 120 min", "value": "100% (2×) and 83% (3×) and 67%"},
      {"measurement": "% Mortality, Avg", "setting": "[2]; 0.5 mg/L", "value": 100, "unit": "%"},
      {"measurement": "% Mortality, single replicates (1 to 6)", "setting": "[2]; 0.5 mg/L", "value": 100, "unit": "%"},
      {"measurement": "LC50", "setting": "[2]; 2 hours of exposure, pH 6.5, 23° C", "value": 0.115, "unit": "mg/L"},
      {"measurement": "insecticidal activity, southern armyworm", "setting": "[3]", "value": "essentially inactive"},
      {"measurement": "CNS-depressant activity", "setting": "[4]; experimental animals / mice", "value": "activity similar to SC-8"},
      {"measurement": "neuroleptic activity", "setting": "[4]; mouse, in vivo", "value": "neuroleptically active"},
      {"measurement": "mortality at 100 ppm", "setting": "[5]", "value": 15, "unit": "%"},
      {"measurement": "insecticidal activity, cabbage looper", "setting": "[6]", "value": "essentially inactive"}
    ]}
  ]
}
